Laboratory results: the NIST ThermoML archive (doi:10.1021/je050416y)

Assay: xn = mol fraction of the nth substance listed
Conditions: 101 kPa, Liquid; for mass density: Vibrating tube method

CC(C)CCO [3-methylbutan-1-ol] + CCO
Conditions | kinematic viscosity [m2/s] | mass density [kg/m3]
293.15 K, x1 = 0.0268 | – | 790.5
293.15 K, x1 = 0.0549 | – | 791.3
293.15 K, x1 = 0.0845 | – | 792.1
293.15 K, x1 = 0.0915 | 1.55e-06 | –
293.15 K, x1 = 0.1156 | – | 792.9
293.15 K, x1 = 0.1484 | – | 793.8
293.15 K, x1 = 0.1753 | 1.61e-06 | –
293.15 K, x1 = 0.183 | – | 794.7
293.15 K, x1 = 0.2524 | 1.68e-06 | –
293.15 K, x1 = 0.2584 | – | 796.6
293.15 K, x1 = 0.3235 | 1.75e-06 | –
293.15 K, x1 = 0.3433 | – | 798.5
293.15 K, x1 = 0.3894 | 1.83e-06 | –
293.15 K, x1 = 0.4395 | – | 800.4
293.15 K, x1 = 0.4505 | 1.93e-06 | –
293.15 K, x1 = 0.5495 | – | 802.4
293.15 K, x1 = 0.5605 | 2.19e-06 | –
293.15 K, x1 = 0.6567 | 2.51e-06 | –
293.15 K, x1 = 0.6765 | – | 804.3
293.15 K, x1 = 0.7416 | 2.89e-06 | –
293.15 K, x1 = 0.817 | 3.31e-06 | –
293.15 K, x1 = 0.8247 | – | 806.3
293.15 K, x1 = 0.8844 | 3.8e-06 | –
293.15 K, x1 = 0.9451 | 4.35e-06 | –
293.15 K, x1 = 1 | 5e-06 | 808.3
298.15 K, x1 = 0.0268 | – | 786.2
298.15 K, x1 = 0.0549 | – | 787
298.15 K, x1 = 0.0845 | – | 787.9
298.15 K, x1 = 0.0915 | 1.42e-06 | –
298.15 K, x1 = 0.1156 | – | 788.8
298.15 K, x1 = 0.1484 | – | 789.7
298.15 K, x1 = 0.1753 | 1.48e-06 | –
298.15 K, x1 = 0.183 | – | 790.6
298.15 K, x1 = 0.2524 | 1.54e-06 | –
298.15 K, x1 = 0.2584 | – | 792.5
298.15 K, x1 = 0.3235 | 1.61e-06 | –
298.15 K, x1 = 0.3433 | – | 794.5
298.15 K, x1 = 0.3894 | 1.69e-06 | –
298.15 K, x1 = 0.4395 | – | 796.5
298.15 K, x1 = 0.4505 | 1.78e-06 | –
298.15 K, x1 = 0.5495 | – | 798.5
298.15 K, x1 = 0.5605 | 2.01e-06 | –
298.15 K, x1 = 0.6567 | 2.28e-06 | –
298.15 K, x1 = 0.6765 | – | 800.5
298.15 K, x1 = 0.7416 | 2.6e-06 | –
298.15 K, x1 = 0.817 | 2.96e-06 | –
298.15 K, x1 = 0.8247 | – | 802.6
298.15 K, x1 = 0.8844 | 3.37e-06 | –
298.15 K, x1 = 0.9451 | 3.84e-06 | –
298.15 K, x1 = 1 | 4.35e-06 | 804.6
303.15 K, x1 = 0.0268 | – | 781.8
303.15 K, x1 = 0.0549 | – | 782.7
303.15 K, x1 = 0.0845 | – | 783.7
303.15 K, x1 = 0.0915 | 1.27e-06 | –
303.15 K, x1 = 0.1156 | – | 784.6
303.15 K, x1 = 0.1484 | – | 785.5
303.15 K, x1 = 0.1753 | 1.32e-06 | –
303.15 K, x1 = 0.183 | – | 786.5
303.15 K, x1 = 0.2524 | 1.38e-06 | –
303.15 K, x1 = 0.2584 | – | 788.5
303.15 K, x1 = 0.3235 | 1.45e-06 | –
303.15 K, x1 = 0.3433 | – | 790.5
303.15 K, x1 = 0.3894 | 1.52e-06 | –
303.15 K, x1 = 0.4395 | – | 792.5
303.15 K, x1 = 0.4505 | 1.61e-06 | –
303.15 K, x1 = 0.5495 | – | 794.6
303.15 K, x1 = 0.5605 | 1.81e-06 | –
303.15 K, x1 = 0.6567 | 2.05e-06 | –
303.15 K, x1 = 0.6765 | – | 796.7
303.15 K, x1 = 0.7416 | 2.33e-06 | –
303.15 K, x1 = 0.817 | 2.64e-06 | –
303.15 K, x1 = 0.8247 | – | 798.7
303.15 K, x1 = 0.8844 | 2.99e-06 | –
303.15 K, x1 = 0.9451 | 3.38e-06 | –
303.15 K, x1 = 1 | 3.81e-06 | 800.8
308.15 K, x1 = 0.0268 | – | 777.5
308.15 K, x1 = 0.0549 | – | 778.4
308.15 K, x1 = 0.0845 | – | 779.4
308.15 K, x1 = 0.0915 | 1.17e-06 | –
308.15 K, x1 = 0.1156 | – | 780.4
308.15 K, x1 = 0.1484 | – | 781.4
308.15 K, x1 = 0.1753 | 1.22e-06 | –
308.15 K, x1 = 0.183 | – | 782.4
308.15 K, x1 = 0.2524 | 1.27e-06 | –
308.15 K, x1 = 0.2584 | – | 784.4
308.15 K, x1 = 0.3235 | 1.33e-06 | –
308.15 K, x1 = 0.3433 | – | 786.5
308.15 K, x1 = 0.3894 | 1.4e-06 | –
308.15 K, x1 = 0.4395 | – | 788.6
308.15 K, x1 = 0.4505 | 1.47e-06 | –
308.15 K, x1 = 0.5495 | – | 790.7
308.15 K, x1 = 0.5605 | 1.65e-06 | –
308.15 K, x1 = 0.6567 | 1.86e-06 | –
308.15 K, x1 = 0.6765 | – | 792.9
308.15 K, x1 = 0.7416 | 2.1e-06 | –
308.15 K, x1 = 0.817 | 2.37e-06 | –
308.15 K, x1 = 0.8247 | – | 795
308.15 K, x1 = 0.8844 | 2.66e-06 | –
308.15 K, x1 = 0.9451 | 2.98e-06 | –
308.15 K, x1 = 1 | 3.33e-06 | 797.1
313.15 K, x1 = 0.0268 | – | 773.2
313.15 K, x1 = 0.0549 | – | 774.2
313.15 K, x1 = 0.0845 | – | 775.2
313.15 K, x1 = 0.0915 | 1.07e-06 | –
313.15 K, x1 = 0.1156 | – | 776.2
313.15 K, x1 = 0.1484 | – | 777.2
313.15 K, x1 = 0.1753 | 1.12e-06 | –
313.15 K, x1 = 0.183 | – | 778.2
313.15 K, x1 = 0.2524 | 1.17e-06 | –
313.15 K, x1 = 0.2584 | – | 780.3
313.15 K, x1 = 0.3235 | 1.22e-06 | –
313.15 K, x1 = 0.3433 | – | 782.4
313.15 K, x1 = 0.3894 | 1.28e-06 | –
313.15 K, x1 = 0.4395 | – | 784.6
313.15 K, x1 = 0.4505 | 1.35e-06 | –
313.15 K, x1 = 0.5495 | – | 786.7
313.15 K, x1 = 0.5605 | 1.51e-06 | –
313.15 K, x1 = 0.6567 | 1.69e-06 | –
313.15 K, x1 = 0.6765 | – | 788.9
313.15 K, x1 = 0.7416 | 1.9e-06 | –
313.15 K, x1 = 0.817 | 2.13e-06 | –
313.15 K, x1 = 0.8247 | – | 791
313.15 K, x1 = 0.8844 | 2.38e-06 | –
313.15 K, x1 = 0.9451 | 2.66e-06 | –
313.15 K, x1 = 1 | 2.94e-06 | 793.2
318.15 K, x1 = 0.0268 | – | 769
318.15 K, x1 = 0.0549 | – | 770
318.15 K, x1 = 0.0845 | – | 771
318.15 K, x1 = 0.0915 | 9.8e-07 | –
318.15 K, x1 = 0.1156 | – | 772
318.15 K, x1 = 0.1484 | – | 773.1
318.15 K, x1 = 0.1753 | 1.03e-06 | –
318.15 K, x1 = 0.183 | – | 774.1
318.15 K, x1 = 0.2524 | 1.07e-06 | –
318.15 K, x1 = 0.2584 | – | 776.3
318.15 K, x1 = 0.3235 | 1.12e-06 | –
318.15 K, x1 = 0.3433 | – | 778.4
318.15 K, x1 = 0.3894 | 1.17e-06 | –
318.15 K, x1 = 0.4395 | – | 780.6
318.15 K, x1 = 0.4505 | 1.23e-06 | –
318.15 K, x1 = 0.5495 | – | 782.8
318.15 K, x1 = 0.5605 | 1.37e-06 | –
318.15 K, x1 = 0.6567 | 1.54e-06 | –
318.15 K, x1 = 0.6765 | – | 785.1
318.15 K, x1 = 0.7416 | 1.72e-06 | –
318.15 K, x1 = 0.817 | 1.92e-06 | –
318.15 K, x1 = 0.8247 | – | 787.3
318.15 K, x1 = 0.8844 | 2.13e-06 | –
318.15 K, x1 = 0.9451 | 2.36e-06 | –
318.15 K, x1 = 1 | 2.59e-06 | 789.5
323.15 K, x1 = 0.0268 | – | 764.6
323.15 K, x1 = 0.0549 | – | 765.7
323.15 K, x1 = 0.0845 | – | 766.7
323.15 K, x1 = 0.0915 | 8.72e-07 | –
323.15 K, x1 = 0.1156 | – | 767.8
323.15 K, x1 = 0.1484 | – | 768.9
323.15 K, x1 = 0.1753 | 9.13e-07 | –
323.15 K, x1 = 0.183 | – | 769.9
323.15 K, x1 = 0.2524 | 9.53e-07 | –
323.15 K, x1 = 0.2584 | – | 772.1
323.15 K, x1 = 0.3235 | 9.96e-07 | –
323.15 K, x1 = 0.3433 | – | 774.3
323.15 K, x1 = 0.3894 | 1.05e-06 | –
323.15 K, x1 = 0.4395 | – | 776.6
323.15 K, x1 = 0.4505 | 1.1e-06 | –
323.15 K, x1 = 0.5495 | – | 778.9
323.15 K, x1 = 0.5605 | 1.23e-06 | –
323.15 K, x1 = 0.6567 | 1.39e-06 | –
323.15 K, x1 = 0.6765 | – | 781.2
323.15 K, x1 = 0.7416 | 1.55e-06 | –
323.15 K, x1 = 0.817 | 1.72e-06 | –
323.15 K, x1 = 0.8247 | – | 783.4
323.15 K, x1 = 0.8844 | 1.9e-06 | –
323.15 K, x1 = 0.9451 | 2.09e-06 | –
323.15 K, x1 = 1 | 2.29e-06 | 785.7
